Measured values reported in patent US20020009747A1, “METHODS AND REAGENTS FOR IDENTIFYING MODULATORS OF NEURONAL APOPTOSIS” (priority 1997, published 2002).
Entries after “also recorded” stand apart in the source; their conditions may differ.

System: primary sympathetic neurons
Assay: NGF withdrawal assay, neuronal survival quantitated by MTT assay
Assay type: cell-based
Details: protein expressed by recombinant adenovirus infection, NGF withdrawn
Method: One experimental system which can be used to assay for changes in death marker proteins in neurons undergoing cell death employs primary sympathetic neurons that are cultured for 3-5 days in nerve growth factor (NGF) to maintain their survival, after which time NGF is withdrawn to induce apoptosis. Death of the neuron occurs within 48 hours and requires transcription. […] Prior to the commitment point, the neurons can be rescued by re-supplying them with NGF; subsequent to the commitment point, the neurons can no longer be rescued, and are committed to die. As a part of the invention, we have shown that death due to NGF withdrawal in this assay is an apoptotic event (see Example V, below).
To confirm that primary sympathetic neurons die by apoptotic cell death, neurons were infected with a recombinant adenovirus expressing E1B55K, an adenoviral protein known to inhibit apoptosis by inhibiting p53. After adenovirus infection, NGF was withdrawn, and neuronal survival was then quantitated by MTT assay, as in Slack et al. supra.

Substance | neuronal survival / death after NGF withdrawal
Bcl2: a protein that can inhibit apoptosis | inhibits cell death in NGF-deprived neurons
E1B55K: adenoviral protein known to inhibit apoptosis by inhibiting p53, expressed from a recombinant adenovirus | inhibits death in NGF-deprived neurons; also recorded: rescue of sympathetic neuron apoptosis
